According to PubChem BioAssay (NCI):
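Five concentrations, 48 hours, 96-well plates. At the GI50, growth is halved. The concentration for full growth arrest is given as TGI.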

Legend:
Assay in all cases: NCI anticancer screen, dose series, 48 h
DU-145 prostate = system: DU-145 prostate
KM12 colon = system: KM12 colon
A549 NSCLC = system: A549 NSCLC
SK-OV-3 ovarian = system: SK-OV-3 ovarian
PC-3 prostate = system: PC-3 prostate
MDA-MB-435 = system: MDA-MB-435
IGROV1 ovarian = system: IGROV1 ovarian
OVCAR-4 ovarian = system: OVCAR-4 ovarian
SR leukemia = system: SR leukemia
NCI-H226 lung = system: NCI-H226 lung

Compound	GI50 (DU-145 prostate) [µM]	TGI (DU-145 prostate) [µM]	GI50 (KM12 colon) [µM]	TGI (KM12 colon) [µM]	GI50 (A549 NSCLC) [µM]	TGI (A549 NSCLC) [µM]	GI50 (SK-OV-3 ovarian) [µM]	TGI (SK-OV-3 ovarian) [µM]	GI50 (PC-3 prostate) [µM]	TGI (PC-3 prostate) [µM]	GI50 (MDA-MB-435) [µM]	TGI (MDA-MB-435) [µM]	GI50 (IGROV1 ovarian) [µM]	TGI (IGROV1 ovarian) [µM]	GI50 (OVCAR-4 ovarian) [µM]	TGI (OVCAR-4 ovarian) [µM]	GI50 (SR leukemia) [µM]	TGI (SR leukemia) [µM]	GI50 (NCI-H226 lung) [µM]	TGI (NCI-H226 lung) [µM]
O=P(Oc1ccccc1)(Oc1ccccc1)C(O)c1ccccc1 (stereo unspecified)	> 100	> 100	51	> 100	> 100	> 100	> 100	> 100	35.8	> 100	74	> 100	37.2	> 100	58.2	> 100	62.3	> 100		
Cc1cc(S(=O)(=O)Nc2nnc(-c3ccco3)c(-c3ccco3)n2)c(SCc2ccccc2)cc1Cl	17	32.5	27.8	> 100	34.7	> 100			28	57	25.4	49.6	32.4	> 100	22	41.6	19.4	40	22.4	69.9
CN(C)CCCNC(=O)c1cc(NC(=O)c2cc(NC(=O)CCCN3c4ccccc4C=Cc4ccccc43)cn2C)cn1C	10.6	35.4	2.42	10.8	11.5	39.9	21.9	> 100	5.33	> 100			3.36	8.8	23.2	97.4			19.4	> 100
Clc1ccc(Nc2ccnc(NCCNc3ccnc4cc(Cl)ccc34)n2)cc1	1.59	2.97	1.62	3.06	1.53	3.1	1.44	2.76	1.19	3.15	1.37	2.68	1.43	3.12	1.03	2.31	1.39	3.43		
O=C(O)C(Cc1ccccc1-c1ccccc1)C(=O)O		> 100		> 100		> 100				> 100		> 100		> 100		> 100		> 100		> 100
COc1cc(-c2cc(C(=O)Nc3nc4ccccc4s3)nc3cc(-c4ccccc4)nn23)cc(OC)c1OC	65	> 100	22.6	> 100			12.5	27.9	> 100	> 100	2.61	40.3	56.3	> 100	> 100	> 100	19.7	52.5	27.5	> 100
O=C1CC2(CCCc3sccc32)C(=O)N1 (stereo unspecified)		> 100		> 100		> 100		> 100		> 100		> 100		> 100		> 100				> 100
COc1ccc(/C=C\c2cc(OC)c(OC)c(OC)c2)cc1NC(=O)[C@@H](N)CO	0.0288	> 100	< 0.0129	> 100	0.0295	> 100	< 0.0124	> 100	0.0188	> 100			0.0273	> 92.6	0.0355	> 100	< 0.015	> 100	0.0287	> 100
C=C(CN1CCc2ccccc2C1)c1ccc(/C=C/C(=O)Nc2ccccc2N)cc1	5.98	> 100	0.965	> 100	1.79	> 100	66	> 100	4.05	> 100	4.89	80.7	4.46	> 100	45.4	> 100			2.64	25.4
COc1cc2c3c(n(CCCO)c(=O)c2cc1OC)-c1cc2c(cc1C3=O)OCO2	3.22	> 44.3	27.7	> 100	16.9	> 100	55.3	> 100	> 24.7	> 81.7	31.4	> 100	17.4	> 100	> 87.3	> 100			3.85	50.9
O=C(Nc1cccc(C2=NCCN2)c1)c1ccc(OCCCOc2ccc(C(=O)Nc3cccc(C4=NCCN4)c3)cc2)cc1							2.39	5.41	2.78	8.21							1.96	> 100		
O=C(CCl)Nc1ccccc1SCc1cc(Cl)cc2c1OCOC2	15.7	29.4	13.8	27.4	20.2	45.1	12.2	33.5	11.4	25.9	2.87	11.1	2.27	5.62	3.14	12.5			11.2	35.6
N#Cc1c2ccccc2c2nnc3cc(C(F)(F)F)ccc3n12	58.4	> 100	> 100	> 100	36.3	> 100	> 100	> 100	48.1	> 100	31.4	> 100	46.9	> 100	55.5	> 100	31.3	> 100		
CC1=C(C(=O)Nc2ccc(F)c(Cl)c2)C(c2cccc(O)c2)NC(=S)N1 (stereo unspecified)	> 50	> 50	10.8	35.8	21	> 50	16.8	> 50	32.1	> 50	11.6	28.9	22.9	> 50			16.4	> 50		
CS(=O)(=O)c1ccc(Oc2nccc(-c3c(-c4ccc(F)cc4)ncn3C3CCNCC3)n2)cc1	> 25	> 25	> 25	> 25	> 25	> 25	> 25	> 25	> 25	> 25	> 25	> 25	> 25	> 25	> 25	> 25				
COc1ccc(-c2nc3sccn3c2/C=C/C(=O)c2cc(OC)c(OC)c(OC)c2)cc1OC			2.04	4.53	2.62	6.03	2.9	8.07	2.21	6.96	2.84	19.1	1.2	3.31	2.85	77.2	1.3	4.15	2.16	9.84
COc1cccc2c(Nc3ccc(C(=O)NCCNCCO)cc3)cc(-c3ccccc3)nc12	58.7	> 100	33.2	> 100	> 100	> 100	86.7	> 100	35.4	> 100	27.8	75.5	20.4	48.7	13.5	43.7			56.1	> 100
Cc1ccc2c(/C=C/C(=O)c3cc(CN4CCOCC4)c(O)c4nc(C)ccc34)cc(CN3CCOCC3)c(O)c2n1			0.558	2.24	0.38	15.1			0.577	19.1	0.669	2.3	0.622	3.6	0.637	2.43	0.318	11.9	1.24	4.13
COC(=O)C/C(C)=C/[C@@H](O)[C@H]1O[C@@H]2CC/C(Cl)=C/C/C=C(/C)[C@H](OC(C)=O)CC(=O)O[C@@H]1C2	1.29	> 25	2.64	9.63	10	> 25			1.08	4.13			1.68	15.7			0.813	3.19	4.76	11.8
Cc1ccc(C)c(-n2c(-c3ccc(Br)cc3)csc2=NC(=O)c2ccccc2F)c1	> 100	> 100			> 100	> 100	> 100	> 100	3.29	> 100	> 100	> 100	> 100	> 100	9.57	> 100			> 100	> 100
CCCCCCC(O)C/C=C/CCCCCC/C(C(=O)OC)=C(/O)C(=O)OCC (stereo unspecified)				> 100		> 100		> 100						> 100		> 100		> 100		> 100
COc1cc(/C=C2\CC(C)CC3C2=NN(c2ccccc2)C3c2cc(OC)c(OC)c(OC)c2)cc(OC)c1OC (stereo unspecified)	15.4	45.7	7.28	40.8	14.9	> 100	9.14	41	16.9	> 100	8.53	47.7	20.2	> 100	14.2	> 100			37.4	> 100
